Reference: EP0326329B1, “Quinazoline derivatives useful as insecticides” (Dow AgroSciences LLC, priority 1988, dated 1989)

Assays:
Format in all cases: in vivo
[1] = test system: southern armyworm (Spodopetra eridania Cramer); assay: Mite/insect screen, sprayed squash leaves (SAW); details: Spodoptera eridania, percent mortality, read-out: SAW RESULTS %; for mortality at 200 ppm: spray rate 200 ppm; for mortality at 400 ppm: spray rate 400 ppm
Procedure, shortened: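 Mortality and phytotoxicity read after standard exposure periods on sprayed squash: cotyledons for melon aphids and twospotted spider mites, excised leaves placed with southern armyworm larvae. Spray solutions were water dilutions of acetone/alcohol stocks containing TOXIMUL R and S emulsifiers, applied to runoff at 10 psi and air-dried one hour.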

[2] = test system: Twospotted spider mites (Tetranychus urticae Koch); assay: Mite/insect screen, sprayed squash cotyledons (SM); details: Tetranychus urticae, percent mortality, read-out: SM RESULTS %; for mortality at 200 ppm: spray rate 200 ppm; for mortality at 400 ppm: spray rate 400 ppm
Procedure, shortened: (§1)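 Compounds were dissolved in 50:50 acetone/alcohol containing sulfonate/nonionic emulsifier blends (23 g and 13 g per liter) and diluted with water to test concentrations. Leaves were sprayed on both surfaces to runoff and dried for one hour. Percent mortality and phytotoxicity were scored after standard exposure periods.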

[3] = test system: Southern corn rootworm (Diabrotica undecimpuctata howardi Barber); assay: Mite/insect screen, soil treatment (CRW); details: Diabrotica, percent mortality, soil treatment, read-out: CRW RESULTS %; for mortality at 12 ppm: CRW rate 12.00 ppm; for mortality at 24 ppm: CRW rate 24.00 ppm
Procedure, shortened: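 Five 2–3 instar larvae were placed on dry sandy soil with a presoaked corn seed after the soil had received 1 mL of compound solution and dried 6–12 h; cups were kept capped at 23°C. Mortality (%) and phytotoxicity were read after standard exposure. Formulation: acetone/alcohol with emulsifiers, water-diluted.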

[4] = test system: Pyricularia oryzae (rice blast); details: disease control rating, foliar spray, host rice; 400 ppm (+++ at 100 ppm)
[5] = test system: Pseudoperonospora cubensis (downy mildew); assay: Greenhouse Test 1, foliar spray fungicide screen (DOWN MDEW), host squash; details: disease control rating, 400 ppm (+++ at 100 ppm)
[6] = test system: Erysiphe graminis tritici (powdery mildew); assay: Greenhouse Test 1, foliar spray fungicide screen (POWD MDEW), host wheat; details: disease control rating, 400 ppm (+++ at 100 ppm)
[7] = test system: Puccinia recondita tritici (leaf rust); assay: Greenhouse Test 1, foliar spray fungicide screen (LEAF RUST), host wheat; details: disease control rating, 400 ppm (+++ at 100 ppm)
[8] = test system: melon aphids (Aphis gossypii Glover); assay: Mite/insect screen, sprayed squash cotyledons (MA); details: Aphis gossypii, percent mortality, read-out: MA RESULTS %; for mortality at 200 ppm: spray rate 200 ppm; for mortality at 400 ppm: spray rate 400 ppm
Procedure, shortened: as §1

[9] = test system: Botrytis cinerea (gray mold); assay: Greenhouse Test 1, foliar spray fungicide screen (GRAY MOLD), host grape berries; details: disease control rating, 400 ppm (+++ at 100 ppm)

Q: With `Fc1cccc2c(OCCCc3ccc(Oc4ccccc4)cc3)ncnc12` [Example 119, 8-fluoro-4-[3-(4-phenoxyphenyl)propoxy]quinazoline] as the compound, how does the mortality at 200 ppm [1] read?
A: The mortality at 200 ppm was 0%.

Q: And the mortality at 400 ppm [1]?
A: The mortality at 400 ppm was 90%.

Q: And the mortality at 200 ppm [2]?
A: Its mortality at 200 ppm is 50%.

Q: What about the mortality at 400 ppm [2] of the same compound?
A: The mortality at 400 ppm was 0%.

Q: And the mortality at 12 ppm [3]?
A: Its mortality at 12 ppm is 0%.

Q: What about the mortality at 24 ppm [3] of the same compound?
A: Its mortality at 24 ppm is 0%.

Q: What about the “RICE BLAST” value [4] of the same compound?
A: The value was “++ (++ = 90-100% control at 400 ppm)”.

Q: And the “DOWN MDEW” value [5]?
A: The value was “- (- = 0-19% control at 400 ppm)”.

Q: What about the “POWD MDEW” value [6] of the same compound?
A: Its value is “+ (+ = 20-89% control at 400 ppm)”.

Q: What about the “LEAF RUST” value [7] of the same compound?
A: The value was “+ (+ = 20-89% control at 400 ppm)”.

Q: And the mortality at 200 ppm [8]?
A: The mortality at 200 ppm was 80%.

Q: And the mortality at 400 ppm [8]?
A: The mortality at 400 ppm was 0%.

Q: And the “GRAY MOLD” value [9]?
A: Its value is “- (- = 0-19% control at 400 ppm)”.

Q: What does the source list for `Oc1ccc(CCCOc2ncnc3ccccc23)cc1` [Example 121, 4-[3-(4-hydroxyphenyl)propoxy]quinazoline]?
A: mortality at 200 ppm [1]: 0%; mortality at 400 ppm [1]: 0%; mortality at 200 ppm [2]: 0%; mortality at 400 ppm [2]: 0%; mortality at 12 ppm [3]: 0%; mortality at 24 ppm [3]: 0%; RICE BLAST [4]: - (- = 0-19% control at 400 ppm); DOWN MDEW [5]: - (- = 0-19% control at 400 ppm); POWD MDEW [6]: - (- = 0-19% control at 400 ppm); LEAF RUST [7]: - (- = 0-19% control at 400 ppm); mortality at 200 ppm [8]: 0%; mortality at 400 ppm [8]: 0%; GRAY MOLD [9]: - (- = 0-19% control at 400 ppm)

Q: Which results are given for `CCOc1ccc(CCCOc2ncnc3c(F)cccc23)cc1` [Example 125, 8-fluoro-4-[3-[4-ethoxyphenyl]propoxy]quinazoline]?
A: mortality at 200 ppm [1]: 0%; mortality at 400 ppm [1]: 0%; mortality at 200 ppm [2]: 0%; mortality at 400 ppm [2]: 0%; mortality at 12 ppm [3]: 0%; mortality at 24 ppm [3]: 0%; RICE BLAST [4]: + (+ = 20-89% control at 400 ppm); DOWN MDEW [5]: + (+ = 20-89% control at 400 ppm); POWD MDEW [6]: + (+ = 20-89% control at 400 ppm); LEAF RUST [7]: + (+ = 20-89% control at 400 ppm); mortality at 200 ppm [8]: 0%; mortality at 400 ppm [8]: 0%; GRAY MOLD [9]: - (- = 0-19% control at 400 ppm)

Q: Which results are given for `CC(C)c1ccc(CCCc2ncnc3ccccc23)cc1` [Example 126, 4-[3-[4-(1-methylethyl)phenyl]propyl]quinazoline]?
A: mortality at 200 ppm [1]: 0%; mortality at 400 ppm [1]: 0%; mortality at 200 ppm [2]: 100%; mortality at 400 ppm [2]: 100%; mortality at 12 ppm [3]: 0%; mortality at 24 ppm [3]: 0%; RICE BLAST [4]: +++ (+++ = 90-100% control at 100 ppm); DOWN MDEW [5]: ++ (++ = 90-100% control at 400 ppm); POWD MDEW [6]: + (+ = 20-89% control at 400 ppm); LEAF RUST [7]: + (+ = 20-89% control at 400 ppm); mortality at 200 ppm [8]: 100%; mortality at 400 ppm [8]: 80%; GRAY MOLD [9]: - (- = 0-19% control at 400 ppm)

Q: What does the source list for `CC(C)(C)c1ccc(CCCc2ncnc3ccccc23)cc1` [Example 127, 4-[3-[4-(1,1-dimethylethyl)phenyl]propyl]quinazoline]?
A: mortality at 200 ppm [1]: 0%; mortality at 400 ppm [1]: 0%; mortality at 200 ppm [2]: 100%; mortality at 400 ppm [2]: 100%; mortality at 12 ppm [3]: 0%; mortality at 24 ppm [3]: 0%; RICE BLAST [4]: +++ (+++ = 90-100% control at 100 ppm); DOWN MDEW [5]: +++ (+++ = 90-100% control at 100 ppm); POWD MDEW [6]: +++ (+++ = 90-100% control at 100 ppm); LEAF RUST [7]: ++ (++ = 90-100% control at 400 ppm); mortality at 200 ppm [8]: 100%; mortality at 400 ppm [8]: 100%; GRAY MOLD [9]: - (- = 0-19% control at 400 ppm)

Q: What does the source list for `FC(F)(F)c1cc(CCOc2ncnc3ccccc23)cc(C(F)(F)F)c1` [Example 128, 4-[2-[3,5-di(trifluoromethyl)phenyl]ethoxy]quinazoline]?
A: mortality at 200 ppm [1]: 0%; mortality at 400 ppm [1]: 0%; mortality at 200 ppm [2]: 0%; mortality at 400 ppm [2]: 0%; mortality at 12 ppm [3]: 0%; mortality at 24 ppm [3]: 0%; RICE BLAST [4]: + (+ = 20-89% control at 400 ppm); DOWN MDEW [5]: + (+ = 20-89% control at 400 ppm); POWD MDEW [6]: ++ (++ = 90-100% control at 400 ppm); LEAF RUST [7]: + (+ = 20-89% control at 400 ppm); mortality at 200 ppm [8]: 0%; mortality at 400 ppm [8]: 0%; GRAY MOLD [9]: - (- = 0-19% control at 400 ppm)
